BigSolDB 2.1

NC(N)=S
solubility (mole fraction) (in acetonitrile, 303.15 K): 0.00752
solubility (mole fraction) (in acetonitrile, 308.15 K): 0.00805
solubility (mole fraction) (in acetonitrile, 313.15 K): 0.00864
solubility (mole fraction) (in acetonitrile, 318.15 K): 0.00915
solubility (mole fraction) (in acetonitrile, 323.15 K): 0.00972
solubility (mole fraction) (in acetonitrile, 328.15 K): 0.0101
solubility (mole fraction) (in acetonitrile, 333.15 K): 0.0108
solubility (mole fraction) (in acetonitrile, 338.15 K): 0.011
solubility (mole fraction) (in acetonitrile, 343.15 K): 0.0112
solubility (mole fraction) (in benzene, 303.15 K): 0.00283
solubility (mole fraction) (in benzene, 308.15 K): 0.00313
solubility (mole fraction) (in benzene, 313.15 K): 0.0034
solubility (mole fraction) (in benzene, 318.15 K): 0.00372
solubility (mole fraction) (in benzene, 323.15 K): 0.00395
solubility (mole fraction) (in benzene, 328.15 K): 0.00436
solubility (mole fraction) (in benzene, 333.15 K): 0.00496
solubility (mole fraction) (in benzene, 338.15 K): 0.00564
solubility (mole fraction) (in benzene, 343.15 K): 0.0065
solubility (mole fraction) (in chlorobenzene, 303.15 K): 0.00127
solubility (mole fraction) (in chlorobenzene, 308.15 K): 0.00144
solubility (mole fraction) (in chlorobenzene, 313.15 K): 0.00157
solubility (mole fraction) (in chlorobenzene, 318.15 K): 0.00174
solubility (mole fraction) (in chlorobenzene, 323.15 K): 0.00189
solubility (mole fraction) (in chlorobenzene, 328.15 K): 0.00211
solubility (mole fraction) (in chlorobenzene, 333.15 K): 0.0023
solubility (mole fraction) (in chlorobenzene, 338.15 K): 0.00256
solubility (mole fraction) (in chlorobenzene, 343.15 K): 0.00277
solubility (mole fraction) (in ethanol, 303.15 K): 0.0283
solubility (mole fraction) (in ethanol, 308.15 K): 0.0322
solubility (mole fraction) (in ethanol, 313.15 K): 0.0354
solubility (mole fraction) (in ethanol, 318.15 K): 0.0401
solubility (mole fraction) (in ethanol, 323.15 K): 0.0465
solubility (mole fraction) (in ethanol, 328.15 K): 0.0531
solubility (mole fraction) (in ethanol, 333.15 K): 0.0592
solubility (mole fraction) (in ethanol, 338.15 K): 0.0662
solubility (mole fraction) (in ethanol, 343.15 K): 0.0751
solubility (mole fraction) (in ethyl acetate, 303.15 K): 0.0199
solubility (mole fraction) (in ethyl acetate, 308.15 K): 0.021
solubility (mole fraction) (in ethyl acetate, 313.15 K): 0.0221
solubility (mole fraction) (in ethyl acetate, 318.15 K): 0.023
solubility (mole fraction) (in ethyl acetate, 323.15 K): 0.0244
solubility (mole fraction) (in ethyl acetate, 328.15 K): 0.0264
solubility (mole fraction) (in ethyl acetate, 333.15 K): 0.0286
solubility (mole fraction) (in ethyl acetate, 338.15 K): 0.0307
solubility (mole fraction) (in ethyl acetate, 343.15 K): 0.0327
solubility (mole fraction) (in isopropanol, 303.15 K): 0.0258
solubility (mole fraction) (in isopropanol, 308.15 K): 0.0286
solubility (mole fraction) (in isopropanol, 313.15 K): 0.0325
solubility (mole fraction) (in isopropanol, 318.15 K): 0.0361
solubility (mole fraction) (in isopropanol, 323.15 K): 0.0408
solubility (mole fraction) (in isopropanol, 328.15 K): 0.0445
solubility (mole fraction) (in isopropanol, 333.15 K): 0.049
solubility (mole fraction) (in isopropanol, 338.15 K): 0.0534
solubility (mole fraction) (in isopropanol, 343.15 K): 0.0588
solubility (mole fraction) (in m-xylene, 303.15 K): 0.0022
solubility (mole fraction) (in m-xylene, 308.15 K): 0.00249
solubility (mole fraction) (in m-xylene, 313.15 K): 0.00277
solubility (mole fraction) (in m-xylene, 318.15 K): 0.00311
solubility (mole fraction) (in m-xylene, 323.15 K): 0.00342
solubility (mole fraction) (in m-xylene, 328.15 K): 0.00375
solubility (mole fraction) (in m-xylene, 333.15 K): 0.00422
solubility (mole fraction) (in m-xylene, 338.15 K): 0.00485
solubility (mole fraction) (in m-xylene, 343.15 K): 0.00556
solubility (mole fraction) (in methanol, 303.15 K): 0.0605
solubility (mole fraction) (in methanol, 308.15 K): 0.0654
solubility (mole fraction) (in methanol, 313.15 K): 0.0728
solubility (mole fraction) (in methanol, 318.15 K): 0.0804
solubility (mole fraction) (in methanol, 323.15 K): 0.0932
solubility (mole fraction) (in methanol, 328.15 K): 0.106
solubility (mole fraction) (in methanol, 333.15 K): 0.123
solubility (mole fraction) (in n-butanol, 303.15 K): 0.0207
solubility (mole fraction) (in n-butanol, 308.15 K): 0.0225
solubility (mole fraction) (in n-butanol, 313.15 K): 0.0248
solubility (mole fraction) (in n-butanol, 318.15 K): 0.0273
solubility (mole fraction) (in n-butanol, 323.15 K): 0.0297
solubility (mole fraction) (in n-butanol, 328.15 K): 0.0332
solubility (mole fraction) (in n-butanol, 333.15 K): 0.0361
solubility (mole fraction) (in n-butanol, 338.15 K): 0.0396
solubility (mole fraction) (in n-octanol, 303.15 K): 0.0211
solubility (mole fraction) (in n-octanol, 308.15 K): 0.0242
solubility (mole fraction) (in n-octanol, 313.15 K): 0.028
solubility (mole fraction) (in n-octanol, 318.15 K): 0.032
solubility (mole fraction) (in n-octanol, 323.15 K): 0.0354
solubility (mole fraction) (in n-octanol, 328.15 K): 0.0394
solubility (mole fraction) (in n-octanol, 333.15 K): 0.0445
solubility (mole fraction) (in n-octanol, 338.15 K): 0.0488
solubility (mole fraction) (in n-octanol, 343.15 K): 0.0526
solubility (mole fraction) (in n-propanol, 303.15 K): 0.0242
solubility (mole fraction) (in n-propanol, 308.15 K): 0.0265
solubility (mole fraction) (in n-propanol, 313.15 K): 0.0292
solubility (mole fraction) (in n-propanol, 318.15 K): 0.0324
solubility (mole fraction) (in n-propanol, 323.15 K): 0.036
solubility (mole fraction) (in n-propanol, 328.15 K): 0.0398
solubility (mole fraction) (in n-propanol, 333.15 K): 0.0451
solubility (mole fraction) (in n-propanol, 338.15 K): 0.0499
solubility (mole fraction) (in n-propanol, 343.15 K): 0.0544
solubility (mole fraction) (in toluene, 303.15 K): 0.0025
solubility (mole fraction) (in toluene, 308.15 K): 0.00289
solubility (mole fraction) (in toluene, 313.15 K): 0.00307
solubility (mole fraction) (in toluene, 318.15 K): 0.00336
solubility (mole fraction) (in toluene, 323.15 K): 0.00372
solubility (mole fraction) (in toluene, 328.15 K): 0.00405
solubility (mole fraction) (in toluene, 333.15 K): 0.00452
solubility (mole fraction) (in toluene, 338.15 K): 0.00525
solubility (mole fraction) (in toluene, 343.15 K): 0.0059
